According to patent US20150246938A1, “NOVEL OLEFIN DERIVATIVE” (SHIONOGI & CO., LTD., priority 2011, published 2015):

Target: T1, recombinant human ACC2 (Homo sapiens, UniProt O00763)
T1 construct: a cDNA encoding human ACC2 (27-2458) was cloned from human kidney cDNA library (Clontech); His-tag (N); made in house; host or cells: Sf-9 insect cells (Bac-to-Bac baculovirus)
Experiment: Measurement of inhibitory activity on human ACC2 (MALDI-TOF MS, acetyl CoA to malonyl CoA conversion)
Type: biochemical
Conditions: not given

T1 sequence (O00763 27-2458): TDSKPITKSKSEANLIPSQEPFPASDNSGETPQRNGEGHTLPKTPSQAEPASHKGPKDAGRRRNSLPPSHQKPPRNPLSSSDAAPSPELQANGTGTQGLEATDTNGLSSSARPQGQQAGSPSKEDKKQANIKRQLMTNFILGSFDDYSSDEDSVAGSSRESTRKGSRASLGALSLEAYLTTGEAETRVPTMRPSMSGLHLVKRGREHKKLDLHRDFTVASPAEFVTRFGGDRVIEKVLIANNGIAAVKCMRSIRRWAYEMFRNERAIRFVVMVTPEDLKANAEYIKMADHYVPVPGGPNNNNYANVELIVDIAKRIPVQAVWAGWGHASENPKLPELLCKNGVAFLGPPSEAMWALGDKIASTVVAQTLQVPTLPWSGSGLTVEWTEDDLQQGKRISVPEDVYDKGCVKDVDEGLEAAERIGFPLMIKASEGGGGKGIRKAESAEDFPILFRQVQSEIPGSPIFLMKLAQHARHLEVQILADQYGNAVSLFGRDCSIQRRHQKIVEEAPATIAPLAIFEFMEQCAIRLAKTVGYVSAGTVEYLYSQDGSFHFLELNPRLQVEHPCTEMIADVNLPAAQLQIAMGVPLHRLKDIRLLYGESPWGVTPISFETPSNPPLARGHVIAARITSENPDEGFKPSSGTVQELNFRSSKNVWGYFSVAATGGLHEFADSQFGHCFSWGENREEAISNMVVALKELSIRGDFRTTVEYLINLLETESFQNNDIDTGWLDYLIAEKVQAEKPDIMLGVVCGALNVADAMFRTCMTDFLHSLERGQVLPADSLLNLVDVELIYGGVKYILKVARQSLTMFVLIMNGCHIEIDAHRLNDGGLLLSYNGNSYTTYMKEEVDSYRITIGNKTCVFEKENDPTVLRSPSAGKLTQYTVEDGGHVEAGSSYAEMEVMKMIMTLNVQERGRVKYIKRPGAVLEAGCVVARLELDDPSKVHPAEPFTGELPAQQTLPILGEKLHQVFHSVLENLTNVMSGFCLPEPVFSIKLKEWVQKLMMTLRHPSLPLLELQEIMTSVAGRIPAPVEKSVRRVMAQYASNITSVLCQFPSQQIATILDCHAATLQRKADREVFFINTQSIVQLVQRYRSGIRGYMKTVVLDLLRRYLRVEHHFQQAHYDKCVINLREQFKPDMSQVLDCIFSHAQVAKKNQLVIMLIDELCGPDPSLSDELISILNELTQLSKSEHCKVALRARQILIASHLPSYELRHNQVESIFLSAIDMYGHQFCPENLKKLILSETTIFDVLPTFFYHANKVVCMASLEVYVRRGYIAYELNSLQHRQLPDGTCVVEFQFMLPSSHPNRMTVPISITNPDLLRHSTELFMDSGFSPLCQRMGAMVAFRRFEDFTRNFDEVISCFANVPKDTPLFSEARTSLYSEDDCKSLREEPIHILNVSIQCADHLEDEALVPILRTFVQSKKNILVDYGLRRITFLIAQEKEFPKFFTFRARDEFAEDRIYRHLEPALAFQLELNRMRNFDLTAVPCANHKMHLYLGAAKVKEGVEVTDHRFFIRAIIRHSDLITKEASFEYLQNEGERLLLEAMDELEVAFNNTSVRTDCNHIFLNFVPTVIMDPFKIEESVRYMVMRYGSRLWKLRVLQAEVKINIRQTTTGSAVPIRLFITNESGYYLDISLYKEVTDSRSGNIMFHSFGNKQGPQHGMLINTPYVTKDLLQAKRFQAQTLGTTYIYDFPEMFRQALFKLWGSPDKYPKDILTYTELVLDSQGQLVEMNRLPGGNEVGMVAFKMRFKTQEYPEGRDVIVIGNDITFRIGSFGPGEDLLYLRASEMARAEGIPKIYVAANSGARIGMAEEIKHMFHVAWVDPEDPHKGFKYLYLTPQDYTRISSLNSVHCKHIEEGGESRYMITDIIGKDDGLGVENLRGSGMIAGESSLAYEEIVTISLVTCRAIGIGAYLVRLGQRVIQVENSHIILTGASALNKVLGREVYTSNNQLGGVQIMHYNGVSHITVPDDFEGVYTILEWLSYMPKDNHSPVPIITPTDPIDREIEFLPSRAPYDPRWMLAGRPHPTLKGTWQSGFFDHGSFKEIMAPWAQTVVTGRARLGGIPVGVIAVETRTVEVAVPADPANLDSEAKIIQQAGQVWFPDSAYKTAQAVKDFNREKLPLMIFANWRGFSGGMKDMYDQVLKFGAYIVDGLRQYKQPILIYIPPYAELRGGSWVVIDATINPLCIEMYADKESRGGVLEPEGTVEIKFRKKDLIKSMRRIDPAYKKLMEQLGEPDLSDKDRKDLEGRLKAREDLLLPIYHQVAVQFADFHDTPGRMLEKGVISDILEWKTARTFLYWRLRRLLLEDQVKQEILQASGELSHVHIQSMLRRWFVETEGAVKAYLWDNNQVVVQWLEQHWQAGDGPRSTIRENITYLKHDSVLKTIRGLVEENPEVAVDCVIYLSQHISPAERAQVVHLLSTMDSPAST

Structure (SMILES)	IC50 [nM]
COc1cc(Oc2ncc(/C=C/[C@H](C)NC(C)=O)cn2)c(Cl)cc1OCC1CC1 [Compound I-407]	2100
CC(=O)N[C@@H](C)/C=C/c1ccc(Oc2ccc(C3CCC3)cc2Cl)nc1 [Compound I-401]	56
CC(=O)N[C@@H](C)/C=C/c1ccc(Oc2ccc(-c3cnc(C(F)(F)F)cn3)cc2Cl)nc1 [Compound I-417]	57
CC(=O)N[C@@H](C)/C=C/c1ccc(Oc2ccc(C(C)(C)C(F)(F)F)cc2Cl)nc1 [Compound I-409]	25

Other lines, results leading:

IC50 [nM]	Structure (SMILES)
190	CCCc1ccc(Oc2ccc(/C=C/[C@H](C)NC(C)=O)cn2)cc1C#N [Compound I-404]
3200	CCC1(c2ccc(Oc3ccc(/C=C/[C@H](C)NC(C)=O)cn3)c(Cl)c2)COC1 [Compound I-400]
1200	CCCc1ccc(Oc2ccc(/C=C/[C@H](C)NC(=O)CC(=O)OC(C)(C)C)cn2)c(Cl)c1 [Compound I-405]
3000	CCCc1ccc(Oc2ccc(/C=C/[C@H](C)NC(=O)Cc3nccs3)cn2)c(Cl)c1 [Compound I-423]
170	CC(=O)N[C@@H](C)/C=C/c1ccc(Oc2ccc(-c3nccs3)cc2Cl)nc1 [Compound I-416]
280	CCCc1ccc(Oc2ccc(/C=C/[C@H](C)NC(=O)CO)cn2)c(Cl)c1 [Compound I-384]
97	CC(=O)N[C@@H](C)/C=C/c1ccc(Oc2ccc(-c3ncccn3)cc2Cl)nc1 [Compound I-418]

Same assay, conditions: inhibition activity on human ACC2, Table 79; read-out: IC50

Structure (SMILES)	IC50 [nM]
C[C@@H](/C=C/c1cnc(Oc2ccc(OCC3CC3)cc2Cl)s1)NC(=O)CCCN1CCCC1 [Compound I-88]	890
CC(=O)N[C@@H](C)/C=C/c1ccc(Oc2cccc(OC(C)C)c2Cl)nc1 [Compound I-47]	25
CC(=O)N[C@@H](C)/C=C/c1ccc(Oc2ccc(N3CCCC3)cc2Cl)nc1 [Compound I-32]	14
C[C@@H](/C=C/c1cnc(Oc2ccc(OCC3CC3)cc2Cl)s1)NC(=O)C1(C(N)=O)CC1 [Compound I-74]	57
C[C@@H](/C=C/c1cnc(Oc2ccc(OCC3CC3)cc2Cl)s1)NC(=O)C1(C)CC1 [Compound I-83]	48
CC(C)S(=O)(=O)NCCCCC(=O)N[C@@H](C)/C=C/c1cnc(Oc2ccc(OCC3CC3)cc2Cl)s1 [Compound I-117]	38
COC(=O)CCCC(=O)N[C@@H](C)/C=C/c1cnc(Oc2ccc(OCC3CC3)cc2Cl)s1 [Compound I-94]	140
C[C@@H](/C=C/c1cnc(Oc2ccc(OCC3CC3)cc2Cl)s1)NC(=O)CCCn1cncn1 [Compound I-87]	350
CC(=O)N[C@@H](C)/C=C/c1ccc(Oc2cc(Cl)cc(OCC3CC3)c2)nc1 [Compound I-43]	80

More lines, now with the values ahead:

IC50 [nM]	Structure (SMILES)
11	CC(=O)N[C@@H](C)/C=C/c1ccc(Oc2ccc(OC3CCC3)cc2Cl)nc1 [Compound I-39]
470	CC(=O)N[C@@H](C)/C=C/c1cnn(Cc2c(Cl)cc(OCC3CC3)cc2Cl)c1 [Compound I-69]
4.4	CC(=O)N[C@@H](C)/C=C/c1ccc(Oc2ccc(NCC3CC3)c(Cl)c2)nc1 [Compound I-24]
4500	CC(=O)N[C@@H](C)/C=C/c1cnc(Oc2ccc(NC(C)C)cc2Cl)nc1 [Compound I-55]
83	CCOc1cc(Cl)cc(Oc2ccc(/C=C/[C@H](C)NC(C)=O)cn2)c1 [Compound I-45]

Same assay, conditions: inhibition activity on human ACC2, Table 80; read-out: IC50

Structure (SMILES)	IC50 [nM]
CC(C)S(=O)(=O)NCCCC(=O)N[C@@H](C)/C=C/c1cnc(Oc2ccc(OCC3CC3)cc2Cl)s1 [Compound I-119]	61
C[C@@H](/C=C/c1cnc(Oc2ccc(OCC3CC3)cc2Cl)s1)NC(=O)NCC(F)(F)F [Compound I-193]	140
C[C@@H](/C=C/c1cnc(Oc2ccc(OCC3CC3)cc2Cl)s1)NC(=O)CCO [Compound I-125]	320
C[C@@H](/C=C/c1cnc(Oc2ccc(OCC3CC3)cc2Cl)s1)NC(=O)Cn1ccnc1 [Compound I-123]	180

Further lines, results first:

IC50 [nM]	Structure (SMILES)
430	CCOC(=O)CCNc1cc(C(=O)N[C@@H](C)/C=C/c2cnc(Oc3ccc(OCC4CC4)cc3Cl)s2)ccn1 [Compound I-247]
300	C[C@@H](/C=C/c1cnn(Cc2ccc(OCC3CC3)cc2Cl)c1)NC(=O)c1ccnc(C(N)=O)c1 [Compound I-235]
660	COC(=O)N[C@@H](C)/C=C/c1cnn(Cc2ccc(OCC3CC3)cc2Cl)c1 [Compound I-183]
630	Cc1ccc(-c2cc(C(=O)N[C@@H](C)/C=C/c3cnc(Oc4ccc(OCC5CC5)cc4Cl)s3)ccn2)o1 [Compound I-137]
44	CCNC(=O)c1cc(C(=O)N[C@@H](C)/C=C/c2cnn(Cc3ccc(OCC4CC4)cc3Cl)c2)ccn1 [Compound I-233]
800	C[C@@H](/C=C/c1cnc(Oc2ccc(OCC3CC3)cc2Cl)s1)NC(=O)c1cccc(C2=NCCO2)c1 [Compound I-143]
15	C[C@@H](/C=C/c1cnn(Cc2ccc(OCC3CC3)cc2Cl)c1)NC(=O)c1ccnc(C(=O)NC(C)(C)C)c1 [Compound I-236]

Same assay, conditions: inhibition activity on human ACC2, Table 82; read-out: IC50

IC50 [nM]	Structure (SMILES)
780	CCCc1ccc(Oc2ccc(/C=C/[C@H](C)NC(=O)C(=O)OCC)cn2)c(Cl)c1 [Compound I-374]
120	CC(=O)N[C@@H](C)/C=C/c1ccc(Oc2ccc(-c3ccccn3)cc2Cl)nc1 [Compound I-325]
67	CCNC(=O)c1cc(C(=O)N[C@@H](C)/C=C/c2cnn(Cc3ccc(OCC4CC4)cc3F)c2)ccn1 [Compound I-318]
9.1	CCSc1ccc(Oc2ccc(/C=C/[C@H](C)NC(C)=O)cn2)c(Cl)c1 [Compound I-360]
450	CC(=O)N[C@@H](C)/C=C/c1cnc(Oc2ccc(OCC3CC3)cc2Cl)n1C [Compound I-341]
91	CCc1ccc(Oc2ccc(/C=C/[C@H](C)NC(C)=O)cn2)c(Cl)c1 [Compound I-339]
51	CCNC(=O)c1cc(C(=O)N[C@@H](C)/C=C/c2cnn(Cc3c(F)cc(OCC4CC4)cc3F)c2)ccn1 [Compound I-319]
350	CCS(=O)(=O)c1ccc(Oc2ccc(/C=C/[C@H](C)NC(C)=O)cn2)c(Cl)c1 [Compound I-362]

Same assay, conditions: inhibition activity on human ACC2, Table 84; read-out: IC50

Structure (SMILES)	IC50 [nM]
CC(=O)N[C@@H](C)/C=C/c1ccc(Oc2cnc(OCC3CC3)nc2)nc1 [Compound I-492]	80
CC(=O)N[C@@H](C)/C=C/c1ccc(Oc2cc3c(cc2Cl)OCC3)nc1 [Compound I-479]	440
CC(=O)N[C@@H](C)/C=C/c1ccc(Oc2ccc(OCC3CC3)cc2Cl)cn1 [Compound I-490]	42
CC(=O)N[C@@H](C)/C=C/c1ccc(Oc2ccc(-c3ncc(F)cn3)cc2)nc1 [Compound I-493]	150
CCCc1ccc(Oc2ccc(/C=C(\F)[C@H](C)NC(C)=O)cn2)c(Cl)c1 [Compound I-459]	12
CC(=O)N[C@@H](C)/C=C/c1ccc(Oc2ccc3nc(C(C)(C)C)sc3c2Cl)nc1 [Compound I-502]	7.1
CC(=O)N[C@@H](C)/C=C/c1cnc(Oc2ccc3nc(C(F)(F)F)sc3c2Cl)cn1 [Compound I-510]	6
CC(=O)N[C@@H](C)/C=C/c1ccc(Oc2ccc3c(c2)OCCC3)nc1 [Compound I-449]	130
CC(=O)N[C@@H](C)/C=C/c1ccc(Oc2cc3sc(C)nc3cc2Cl)nc1 [Compound I-478]	550
CC(=O)N[C@@H](C)/C=C/c1ccc(Oc2ccc3c(c2Cl)CCC3)nc1 [Compound I-435]	24

More lines, now with the values ahead:

IC50 [nM]	Structure (SMILES)
25	CC(=O)N[C@@H](C)/C=C/c1ccc(Oc2ccc(Oc3ccc([N+](=O)[O-])cc3)cc2Cl)nc1 [Compound I-451]
170	CCCc1ccc(Cl)c(Oc2ccc(/C=C/[C@H](C)NC(C)=O)cn2)c1 [Compound I-475]
5.1	CC(=O)N[C@@H](C)/C=C/c1ccc(Oc2ccc(-c3ccccc3)c(Cl)c2)nc1 [Compound I-503]
60	CC(=O)N[C@@H](C)/C=C/c1ccc(Oc2ccc(OCc3ccccc3)cc2Cl)nc1 [Compound I-450]

Same assay, conditions: inhibition activity on human ACC2, untitled table (Table 81); read-out: IC50

Structure (SMILES)	IC50 [nM]
CC(=O)N[C@@H](C)/C=C/c1ccc(Oc2cc(OC(C)C)ccc2F)nc1 [Compound I-279]	59
CC(=O)N[C@@H](C)/C=C/c1ccc(Oc2ccc(F)c(OC(C)C)c2)nc1 [Compound I-281]	130
CC(=O)N[C@@H](C)/C=C/c1cnc(Oc2ccc(OCC3CC3)c(Cl)c2)cn1 [Compound I-291]	18
CC(=O)N[C@@H](C)/C=C/c1ccc(Oc2cc(F)cc(OC(C)C)c2)nc1 [Compound I-277]	230
CC(=O)N[C@@H](C)/C=C/c1ccc(Oc2cncc(OC(C)C)c2)nc1 [Compound I-301]	1900
CC(=O)NC(C)(C)/C(C)=C/c1ccc(Oc2ccc(OCC3CC3)cc2Cl)nc1 [Compound I-290]	600

Other lines, results leading:

IC50 [nM]	Structure (SMILES)
11	CCCc1ccc(Oc2ccc(/C=C/[C@H](C)NC(C)=O)cn2)cc1Cl [Compound I-305]
1100	CC(=O)N[C@@H](C)/C=C/c1cnn(Cc2cc(F)c(OCC3CC3)c(Cl)c2)c1 [Compound I-265]
96	CC(=O)N[C@@H](C)/C=C/c1ccc(Oc2ccc(NC(=O)CC3CC3)cc2Cl)nc1 [Compound I-251]
3000	CC(=O)N[C@@H](C)/C=C/c1cnn(Cc2c(F)cc(OCC3CC3)cc2F)c1 [Compound I-261]
99	CC(=O)N[C@@H](C)/C=C/c1ccc(Oc2ccc(Cl)cc2Cl)nc1 [Compound I-273]
58	CC(=O)N[C@@H](C)/C=C/c1ccc(Oc2ccc(C3CC3)c(Cl)c2)nc1 [Compound I-298]
79	CCOc1ccc(F)c(Oc2ccc(/C=C/[C@H](C)NC(C)=O)cn2)c1 [Compound I-278]
390	COc1ccc(Oc2ccc(/C=C(\C)C(C)NC(C)=O)cn2)c(Cl)c1 (centres unmarked) [Compound I-270]
480	CCNC(=O)c1cc(C(=O)N[C@@H](C)/C=C/c2cnn(Cc3ccc(OC(F)(F)F)cc3)c2)ccn1 [Compound I-308]
350	CCNC(=O)c1cc(C(=O)N[C@@H](C)/C=C/c2cnn(Cc3ccc(OC)cc3Cl)c2)ccn1 [Compound I-317]
